“And” between values parts separate entries of the source, which are not always exact repeats. Identical values can stand only once. Like-named read-outs stand apart in the source and are kept apart here.
Assays:
[1] = Cytotoxicity on MRC-5 fibroblasts (resazurin); type: cell-based, human; settings: human, MRC-5SV2 human embryonic lung fibroblasts, cytotoxicity in human MRC-5 fibroblasts; mean and SEM; read-out: MRC-5 EC50
How it was run: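 MRC-5SV2 cells (3 × 10^4 cells mL^−1) in MEM with 5% foetal calf serum exposed to compounds for 3 days at 37 °C, 5% CO2. Viability read by resazurin fluorescence (10 µg mL^−1 final, 4 h; λex 550/λem 590 nm) against untreated and medium controls; EC50 derived.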

[2] = system: B48: pentamidine, diminazene and melaminophenyl arsenical resistant T. brucei line; test: microbe, parasite or virus in culture; type: cell-based, Trypanosoma brucei brucei; settings: for EC50: Trypanosoma brucei
[3] = target: Lister 427WT T. b. brucei; test: Adenosine deaminase susceptibility (drug sensitivity with/without 2 µM deoxycoformycin); type: cell-based, Trypanosoma brucei brucei; settings: for EC50: Trypanosoma brucei, Lister 427WT, mean ± SEM, n=3
[4] = system: T. brucei BSF s427 wildtype cells; test: Growth assays of T. brucei (trypanocidal/trypanostatic effect); type: cell-based, Trypanosoma brucei
Procedure: Growth assays of T. brucei
To test the effect of the novel adenosine analogues on the growth of T. brucei BSF, s427 wildtype cells were seeded at 1×10^5 cells mL-1 in 5 mL of HMI-9 medium with 10% FBS and treated with compounds […]
cells were also incubated in drug-free medium under the same conditions. 2 μM of 2’-deoxycoformycin were added to all cultures to avoid any potential effect of serum adenosine deaminase on the activity of test compounds and cordycepin.1
Cells were manually counted in Neubauer chambers at 0, 2, 4, 6, 8, 12, 24, 36 and 48 h after addition of […]
the drugs. […]
After 6 and 12 h after addition of drugs, approximately 2×10^6 cells were harvested from each group and applied to glass slides pre-treated with poly-L-lysine, left to settle for 5 min and fixed with 4% formaldehyde for 4 min. The formaldehyde was neutralised by addition of 100 mM glycine (20 min).
Cells were washed once with PBS and blocked for 1 h with 1% BSA/0.2% Tween-20 in PBS. Cells were […]

Nc1ncnc2c1c(Br)cn2[C@@H]1O[C@H](CO)C[C@H]1O [Compound 10, 3’-deoxy-7-Br-tubercidin]
EC50 at 3 day [1]: 15000 ± 3000 nM | EC50 ([2]; mean and SEM, n = 3, read-out: B48 EC50): 1.3 ± 0.3 nM | EC50 ([2]; source data, read-out: B48 EC50, AVG): 1.32 nM | RF (B48) ([2]; resistance factor vs Lister 427WT): 0.75 | effect of adenosine deaminase inhibition (2’-deoxycoformycin) on EC50 [3]: not significantly affected | EC50 ([3]; absence of deoxycoformycin, read-out: T. b. brucei EC50, -Dcf): 2 ± 0.1 nM | EC50 ([3]; presence of 2 µM deoxycoformycin, read-out: T. b. brucei EC50, +Dcf): 1.9 ± 0.2 nM | AVG of cells/mL ([4]; 2xEC50, 2 h, experiment 1): 128750 cells/mL | Cells/mL ([4]; 2xEC50, 2 h, experiment 1): 137500 Cells/mL and 120000 Cells/mL | Counts ([4]; 2xEC50, 2 h, experiment 1): 55 and 48 | AVG of cells/mL ([4]; 2xEC50, 2 h, experiment 2): 145000 cells/mL | Cells/mL ([4]; 2xEC50, 2 h, experiment 2): 147500 Cells/mL and 142500 Cells/mL | Counts ([4]; 2xEC50, 2 h, experiment 2): 59 and 57 | AVG of cells/mL ([4]; 2xEC50, 4 h, experiment 1): 143750 cells/mL | Cells/mL ([4]; 2xEC50, 4 h, experiment 1): 162500 Cells/mL and 125000 Cells/mL | Counts ([4]; 2xEC50, 4 h, experiment 1): 50 and 65 | AVG of cells/mL ([4]; 2xEC50, 4 h, experiment 2): 148750 cells/mL | Cells/mL ([4]; 2xEC50, 4 h, experiment 2): 160000 Cells/mL and 137500 Cells/mL | Counts ([4]; 2xEC50, 4 h, experiment 2): 55 and 64 | AVG of cells/mL ([4]; 2xEC50, 6 h, experiment 1): 172500 cells/mL | Cells/mL ([4]; 2xEC50, 6 h, experiment 1): 177500 Cells/mL and 167500 Cells/mL | Counts ([4]; 2xEC50, 6 h, experiment 1): 71 and 67 | AVG of cells/mL ([4]; 2xEC50, 6 h, experiment 2): 203750 cells/mL | Cells/mL ([4]; 2xEC50, 6 h, experiment 2): 192500 Cells/mL and 215000 Cells/mL | Counts ([4]; 2xEC50, 6 h, experiment 2): 77 and 86 | AVG of cells/mL ([4]; 2xEC50, 8 h, experiment 1): 183750 cells/mL | Cells/mL ([4]; 2xEC50, 8 h, experiment 1): 177500 Cells/mL and 190000 Cells/mL | Counts ([4]; 2xEC50, 8 h, experiment 1): 71 and 76 | AVG of cells/mL ([4]; 2xEC50, 8 h, experiment 2): 206250 cells/mL | Cells/mL ([4]; 2xEC50, 8 h, experiment 2): 215000 Cells/mL and 197500 Cells/mL | Counts ([4]; 2xEC50, 8 h, experiment 2): 86 and 79 | AVG of cells/mL ([4]; 2xEC50, 12 h, experiment 1): 163750 cells/mL | Cells/mL ([4]; 2xEC50, 12 h, experiment 1): 195000 Cells/mL and 132500 Cells/mL | Counts ([4]; 2xEC50, 12 h, experiment 1): 78 and 53 | AVG of cells/mL ([4]; 2xEC50, 12 h, experiment 2): 143750 cells/mL | Cells/mL ([4]; 2xEC50, 12 h, experiment 2): 160000 Cells/mL and 127500 Cells/mL | Counts ([4]; 2xEC50, 12 h, experiment 2): 64 and 51 | AVG of cells/mL ([4]; 2xEC50, 24 h, experiment 1): 103750 cells/mL | Cells/mL ([4]; 2xEC50, 24 h, experiment 1): 125000 Cells/mL and 82500 Cells/mL | Counts ([4]; 2xEC50, 24 h, experiment 1): 50 and 33 | AVG of cells/mL ([4]; 2xEC50, 24 h, experiment 2): 15000 cells/mL | Cells/mL ([4]; 2xEC50, 24 h, experiment 2): 15000 Cells/mL | Counts ([4]; 2xEC50, 24 h, experiment 2): 6 | AVG of cells/mL ([4]; 2xEC50, 36 h, experiment 1): 103750 cells/mL | Cells/mL ([4]; 2xEC50, 36 h, experiment 1): 107500 Cells/mL and 100000 Cells/mL | Counts ([4]; 2xEC50, 36 h, experiment 1): 43 and 40 | AVG of cells/mL ([4]; 2xEC50, 36 h, experiment 2): 7500 cells/mL | Cells/mL ([4]; 2xEC50, 48 h, experiment 1): 0 Cells/mL | Counts ([4]; 2xEC50, 48 h, experiment 1): 0 | AVG of cells/mL ([4]; 2xEC50, 48 h, experiment 2): 0 cells/mL | Cells/mL ([4]; 2xEC50, 48 h, experiment 2): 0 Cells/mL | Counts ([4]; 2xEC50, 48 h, experiment 2): 0 | effect on T. brucei bloodstream forms in culture (cidal/static) ([4]; 2× and 5× EC50): trypanocidal | AVG of cells/mL ([4]; 5xEC50, 2 h, experiment 1): 138750 cells/mL | Cells/mL ([4]; 5xEC50, 2 h, experiment 1): 132500 Cells/mL and 145000 Cells/mL | Counts ([4]; 5xEC50, 2 h, experiment 1): 53 and 58 | AVG of cells/mL ([4]; 5xEC50, 2 h, experiment 2): 140000 cells/mL | Cells/mL ([4]; 5xEC50, 2 h, experiment 2): 137500 Cells/mL and 142500 Cells/mL | Counts ([4]; 5xEC50, 2 h, experiment 2): 55 and 57 | AVG of cells/mL ([4]; 5xEC50, 4 h, experiment 1): 152500 cells/mL | Cells/mL ([4]; 5xEC50, 4 h, experiment 1): 150000 Cells/mL and 155000 Cells/mL | Counts ([4]; 5xEC50, 4 h, experiment 1): 62 and 60 | AVG of cells/mL ([4]; 5xEC50, 4 h, experiment 2): 153750 cells/mL | Cells/mL ([4]; 5xEC50, 4 h, experiment 2): 160000 Cells/mL and 147500 Cells/mL | Counts ([4]; 5xEC50, 4 h, experiment 2): 59 and 64 | AVG of cells/mL ([4]; 5xEC50, 6 h, experiment 1): 171250 cells/mL | Cells/mL ([4]; 5xEC50, 6 h, experiment 1): 167500 Cells/mL and 175000 Cells/mL | Counts ([4]; 5xEC50, 6 h, experiment 1): 67 and 70 | AVG of cells/mL ([4]; 5xEC50, 6 h, experiment 2): 140000 cells/mL | Cells/mL ([4]; 5xEC50, 6 h, experiment 2): 155000 Cells/mL and 125000 Cells/mL | Counts ([4]; 5xEC50, 6 h, experiment 2): 62 and 50 | AVG of cells/mL ([4]; 5xEC50, 8 h, experiment 1): 131250 cells/mL | Cells/mL ([4]; 5xEC50, 8 h, experiment 1): 130000 Cells/mL and 132500 Cells/mL | Counts ([4]; 5xEC50, 8 h, experiment 1): 52 and 53 | AVG of cells/mL ([4]; 5xEC50, 8 h, experiment 2): 146250 cells/mL | Cells/mL ([4]; 5xEC50, 8 h, experiment 2): 142500 Cells/mL and 150000 Cells/mL | Counts ([4]; 5xEC50, 8 h, experiment 2): 57 and 60 | AVG of cells/mL ([4]; 5xEC50, 12 h, experiment 1): 98750 cells/mL | Cells/mL ([4]; 5xEC50, 12 h, experiment 1): 107500 Cells/mL and 90000 Cells/mL | Counts ([4]; 5xEC50, 12 h, experiment 1): 43 and 36 | AVG of cells/mL ([4]; 5xEC50, 12 h, experiment 2): 95000 cells/mL | Cells/mL ([4]; 5xEC50, 12 h, experiment 2): 92500 Cells/mL and 97500 Cells/mL | Counts ([4]; 5xEC50, 12 h, experiment 2): 37 and 39 | AVG of cells/mL ([4]; 5xEC50, 24 h, experiment 1): 28750 cells/mL | Cells/mL ([4]; 5xEC50, 24 h, experiment 1): 27500 Cells/mL and 30000 Cells/mL | Counts ([4]; 5xEC50, 24 h, experiment 1): 11 and 12 | AVG of cells/mL ([4]; 5xEC50, 24 h, experiment 2): 7500 cells/mL | Cells/mL ([4]; 5xEC50, 24 h, experiment 2): 7500 Cells/mL | Counts ([4]; 5xEC50, 24 h, experiment 2): 3 | AVG of cells/mL ([4]; 5xEC50, 36 h, experiment 1): 18750 cells/mL | Cells/mL ([4]; 5xEC50, 36 h, experiment 1): 12500 Cells/mL and 25000 Cells/mL | Counts ([4]; 5xEC50, 36 h, experiment 1): 5 and 10 | AVG of cells/mL ([4]; 5xEC50, 36 h, experiment 2): 1250 cells/mL | Cells/mL ([4]; 5xEC50, 48 h, experiment 1): 0 Cells/mL | Counts ([4]; 5xEC50, 48 h, experiment 1): 0 | AVG of cells/mL ([4]; 5xEC50, 48 h, experiment 2): 0 cells/mL | Cells/mL ([4]; 5xEC50, 48 h, experiment 2): 0 Cells/mL | Counts ([4]; 5xEC50, 48 h, experiment 2): 0

From article PMC6895180 (Nature Communications, 2019)
